The assay relates to eNOS promoter. The assay can be described thus: Activation of eNOS transcription (eNOS promoter-luciferase reporter gene assay). The following applies: 18 h incubation; for EC50: EC50 of transcription induction ratio vs compound concentration, determined graphically, human endothelial cell line stably transfected with eNOS promoter-luciferase construct; for maximal fold induction: read-out: TIR(max). In kind it is cell-based, human. As to the method: Measurement of Activation of eNOS Transcription
Activation of eNOS transcription was measured as described in detail in Li et al. “Activation of protein kinase C alpha and/or epsilon enhances transcription of the human endothelial nitric oxide synthase gene”, Mol. Pharmacol. 1998; 53: 630-637.
Briefly, a 3.5 kB long fragment 5′ of the starting codon of the eNOS gene was cloned, sequenced and cloned in firefly luciferase expression plasmids to monitor activation of the eNOS promoter by reporter gene activity. A human endothelial cell line stable transfected and expressing this promoter-reporter construct was used for compound testing. Cells were incubated for 18 h with compounds.
All compounds were dissolved in sterile DMSO. A final concentration of 0.5% DMSO in complete medium was allowed. Induction of reporter gene expression in these cells was measured using a standard luciferase assay system (Promega, Cat. No E150) according to the manufacturer's instructions. Luciferase induction in cells incubated with compounds were compared to those incubated with solvent alone. The ratio of both activities (transcription induction ratio, TIR) was plotted as a function of compound concentration. Typically, TIR values started at low concentrations at a ratio of 1, indicating no compound effect, and extended up to a maximum TIR value TIR(max) which indicates the increase of the eNOS transcription. EC50 values of transcription induction ratios as a function of compound concentration were determined graphically.
On the technique in general: A reporter such as luciferase makes a cellular process visible.

Where [1] appears, read: maximum transcription induction ratio (luciferase activity with compound / solvent alone), human endothelial cell line with eNOS promoter-luciferase construct.

As to `Cc1c(NS(C)(=O)=O)cccc1C(=O)NC1CCCc2ccccc2C1` (stereo not drawn) [Compound 99, 3-METHANESULFONYLAMINO-2-METHYL-N-(6,7,8,9-TETRAHYDRO-5H-BENZOCYCLOHEPTEN-6-YL)-BENZAMIDE], the EC50 – broadly, the concentration that produces a half-maximal response – turned out to be 2800 nM. Further, under setting [1], the maximal fold induction stood at 2.5.

`O=C(NC1CCCc2ccccc2C1)c1ccc(N2CCOCC2)nc1` (stereo not drawn) [Compound 101, 6-MORPHOLIN-4-YL-N-(6,7,8,9-TETRAHYDRO-5H-BENZOCYCLOHEPTEN-6-YL)-NICOTINAMIDE]: the concentration giving a half-maximal response (EC50) is 6000 nM. The maximal fold induction under setting [1] was 3.1.

`COc1ccc(C(=O)NC2CCCc3ccccc3C2)cn1` (stereo not drawn) [Compound 102, 6-METHOXY-N-(6,7,8,9-TETRAHYDRO-5H-BENZOCYCLOHEPTEN-6-YL)-NICOTINAMIDE]: the EC50 is 83 nM. In addition, the maximal fold induction under setting [1] was 2.9.

For `O=C(NC1CCCc2ccccc2C1)c1cccc(N2CCCCC2)c1` (stereo not drawn) [Compound 106, 3-PIPERIDIN-1-YL-N-(6,7,8,9-TETRAHYDRO-5H-BENZOCYCLOHEPTEN-6-YL)-BENZAMIDE], the EC50 worked out at 4800 nM. For the same compound, the maximal fold induction under setting [1] worked out at 2.5.

In the case of `O=C(NC1CCCc2ccccc2C1)c1cccc(N2CCOCC2)c1` (stereo not drawn) [Compound 108, 3-MORPHOLIN-4-YL-N-(6,7,8,9-TETRAHYDRO-5H-BENZOCYCLOHEPTEN-6-YL)-BENZAMIDE], the EC50 was found to be 14000 nM. Under setting [1], the maximal fold induction is 3.1.

As to `Cc1ncsc1C(=O)NC1CCCc2ccccc2C1` (stereo not drawn) [Compound 109, 4-METHYL-THIAZOLE-5-CARBOXYLIC ACID (6,7,8,9-TETRAHYDRO-5H-BENZOCYCLOHEPTEN-6-YL)-AMIDE], the 50% effective concentration (EC50) was 1800 nM. The maximal fold induction under setting [1] amounted to 2.8.

Consider `Cc1cnc(C(=O)N[C@H]2CCCc3ccccc3C2)c(N)n1` [Compound 114, (S)-3-AMINO-5-METHYL-PYRAZINE-2-CARBOXYLIC ACID (6,7,8,9-TETRARYDRO-5H-BENZOCYCLOHEPTEN-6-YL)-AMIDE], for which the 50% effective concentration (EC50) was found to be 30 nM. Moreover, under setting [1], the “TIR(max)” value is recorded as 2.9.

Turning to `Cc1nc(N)c(C(=O)N[C@H]2CCCc3ccccc3C2)nc1C` [Compound 115, (S)-3-AMINO-5,6-DIMETHYL-PYRAZINE-2-CARBOXYLIC ACID (6,7,8,9-TETRAHYDRO-5H-BENZOCYCLOHEPTEN-6-YL)-AMIDE], the concentration giving a half-maximal response (EC50) was found to be 20 nM. The maximal fold induction under setting [1] amounted to 3.

As to `CNc1cncc(C(=O)N[C@H]2CCCc3ccccc3C2)n1` [Compound 116, (S)-6-METHYLAMINO-PYRAZINE-2-CARBOXYLIC ACID (6,7,8,9-TETRAHYDRO-5H-BENZOCYCLOHEPTEN-6-YL)-AMIDE], the concentration for a half-maximal effect (EC50) is 150 nM. For the same compound, the maximal fold induction under setting [1] amounted to 2.9.

Consider `CN(C)c1ccc(C(=O)N[C@H]2CCCc3ccccc3C2)cn1` [Compound 117, (S)-6-DIMETHYLAMINO-N-(6,7,8,9-TETRAHYDRO-5H-BENZOCYCLOHEPTEN-6-YL)-NICOTINAMIDE], for which the EC50 is 136 nM. Moreover, under setting [1], the maximal fold induction came to 3.

With `O=C(N[C@H]1CCCc2ccccc2C1)c1ccc(N2CCCC2)nc1` [Compound 118, (S)-6-PYRROLIDIN-1-YL-N-(6,7,8,9-TETRAHYDRO-5H-BENZOCYCLOHEPTEN-6-YL)-NICOTINAMIDE], the concentration for a half-maximal effect (EC50) is 140 nM. Also, under setting [1], the maximal fold induction stood at 3.

On to `Cc1ccc(C(=O)N[C@H]2CCCc3ccccc3C2)cc1NS(C)(=O)=O` [Compound 119, (S)-3-METHANESULFONYLAMINO-4-METHYL-N-(6,7,8,9-TETRAHYDRO-5H-BENZOCYCLOHEPTEN-6-YL)-BENZAMIDE], for which the EC50 was determined as 230 nM. Also, under setting [1], the maximal fold induction was found to be 3.

Consider `Cc1nc(C2CC2)sc1C(=O)N[C@H]1CCCc2ccccc2C1` [Compound 120, (S)-2-CYCLOPROPYL-4-METHYL-THIAZOLE-5-CARBOXYLIC ACID (6,7,8,9-TETRAHYDRO-5H-BENZOCYCLOHEPTEN-6-YL)-AMIDE], for which the concentration for a half-maximal effect (EC50) was found to be 41 nM. Also, the maximal fold induction under setting [1] stood at 3.1.

`Cc1cc(C(=O)N[C@H]2CCCc3ccccc3C2)n(C)n1` [Compound 122, (S)-2,5-DIMETHYL-2H-PYRAZOLE-3-CARBOXYLIC ACID (6,7,8,9-TETRAHYDRO-5H-BENZOCYCLOHEPTEN-6-YL)-AMIDE]: the EC50 stood at 15 nM. For the same compound, the maximal fold induction under setting [1] worked out at 2.85.

Consider `O=C(N[C@H]1CCCc2ccccc2C1)c1ccc(OCC(F)(F)F)cc1` [Compound 125, (S)—N-(6,7,8,9-TETRAHYDRO-5H-BENZOCYCLOHEPTEN-6-YL)-4-(2,2,2-TRIFLUORO-ETHOXY)-BENZAMIDE], for which the EC50 amounted to 40 nM. The maximal fold induction under setting [1] is 3.

In the case of `O=C(N[C@H]1CCCc2ccccc2C1)c1ccc2nc[nH]c2c1` [Compound 126, (S)-3H-BENZOIMIDAZOLE-5-CARBOXYLIC ACID (6,7,8,9-TETRAHYDRO-5H-BENZOCYCLOHEPTEN-6-YL)-AMIDE], the EC50 worked out at 351 nM. In addition, under setting [1], the maximal fold induction turned out to be 2.9.

Take `CN1CC(=O)Nc2cc(C(=O)NC3CCCc4ccccc4C3)ccc21` (stereo not drawn) [Compound 127, 1-METHYL-3-OXO-1,2,3,4-TETRAHYDRO-QUINOXALINE-6-CARBOXYLIC ACID (6,7,8,9-TETRAHYDRO-5H-BENZOCYCLOHEPTEN-6-YL)-AMIDE]: the concentration for a half-maximal effect (EC50) was found to be 4900 nM. In addition, the maximal fold induction under setting [1] is 2.7.

As to `Nc1nc(Cl)ccc1C(=O)N[C@H]1CCCc2ccccc2C1` [Compound 128, (S)-2-AMINO-6-CHLORO-N-(6,7,8,9-TETRAHYDRO-5H-BENZOCYCLOHEPTEN-6-YL)-NICOTINAMIDE], the concentration giving a half-maximal response (EC50) was 2 nM. For the same compound, the maximal fold induction under setting [1] worked out at 3.1.

Take `Cc1nc(N(C)C)sc1C(=O)N[C@H]1CCCc2ccccc2C1` [Compound 129, (S)-2-DIMETHYLAMINO-4-METHYL-THIAZOLE-5-CARBOXYLIC ACID (6,7,8,9-TETRAHYDRO-5H-BENZOCYCLOHEPTEN-6-YL)-AMIDE]: the 50% effective concentration (EC50) stood at 100 nM. Besides, the maximal fold induction under setting [1] amounted to 3.1.

On to `COc1ccc(C(=O)N[C@H]2CCCc3ccccc3C2)cn1` [Compound 130, (S)-6-METHOXY-N-(6,7,8,9-TETRAHYDRO-5H-BENZOCYCLOHEPTEN-6-YL)-NICOTINAMIDE], for which the EC50 was 110 nM. Also, the maximal fold induction under setting [1] came to 3.1.

In the case of `Cc1ccc(C(=O)N[C@H]2CCCc3ccccc3C2)cc1N(C)C` [Compound 131, (S)-3-DIMETHYLAMINO-4-METHYL-N-(6,7,8,9-TETRAHYDRO-5H-BENZOCYCLOHEPTEN-6-YL)-BENZAMIDE], the 50% effective concentration (EC50) was determined as 440 nM. For the same compound, the maximal fold induction under setting [1] was found to be 3.1.

As to `O=C(N[C@H]1CCCc2ccccc2C1)c1cccc(N2CCCC2)c1` [Compound 132, (S)-3-PYRROLIDIN-1-YL-N-(6,7,8,9-TETRAHYDRO-5H-BENZOCYCLOHEPTEN-6-YL)-BENZAMIDE], the EC50 is 50 nM. Moreover, the maximal fold induction under setting [1] was 3.1.

With `COCc1ccc(C(=O)N[C@H]2CCCc3ccccc3C2)cn1` [Compound 133, (S)-6-METHOXYMETHYL-N-(6,7,8,9-TETRAHYDRO-5H-BENZOCYCLOHEPTEN-6-YL)-NICOTINAMIDE], the EC50 is 128 nM. Further, under setting [1], the maximal fold induction came to 3.1.

As to `O=C(NC1CCCc2ccccc2C1)c1cnc2c(c1)CCCC2` (stereo not drawn) [Compound 134, 5,6,7,8-TETRAHYDRO-QUINOLINE-3-CARBOXYLIC ACID (6,7,8,9-TETRAHYDRO-5H-BENZOCYCLOHEPTEN-6-YL)-AMIDE], the EC50 was found to be 3000 nM. The maximal fold induction under setting [1] was determined as 3.5.

For the compound `CNc1cc(C(=O)NC2CCCc3ccccc3C2)ccc1C` (stereo not drawn) [Compound 135, 4-METHYL-3-METHYLAMINO-N-(6,7,8,9-TETRAHYDRO-5H-BENZOCYCLOHEPTEN-6-YL)-BENZAMIDE], the EC50 stood at 589 nM. For the same compound, the maximal fold induction under setting [1] is 3.

With `Nc1nc(Cl)ccc1C(=O)NC1CCCc2ccccc2C1` (stereo not drawn) [Compound 137, 2-AMINO-6-CHLORO-N-(6,7,8,9-TETRAHYDRO-5H-BENZOCYCLOHEPTEN-6-YL)-NICOTINAMIDE], the EC50 worked out at 90 nM. Moreover, the maximal fold induction under setting [1] is 3.

For the compound `NS(=O)(=O)c1cc(C(=O)NC2CCCc3ccccc3C2)ccc1Cl` (stereo not drawn) [Compound 138, 4-CHLORO-3-SULFAMOYL-N-(6,7,8,9-TETRAHYDRO-5H-BENZOCYCLOHEPTEN-6-YL)-BENZAMIDE], the EC50 was 10000 nM. The maximal fold induction under setting [1] turned out to be 3.

`CS(=O)(=O)c1cccc(C(=O)NC2CCCc3ccccc3C2)c1` (stereo not drawn) [Compound 139, 3-METHANESULFONYL-N-(6,7,8,9-TETRAHYDRO-5H-BENZOCYCLOHEPTEN-6-YL)-BENZAMIDE]: the EC50 worked out at 1900 nM. In addition, the maximal fold induction under setting [1] worked out at 3.

For `Cc1ccc(S(C)(=O)=O)cc1C(=O)NC1CCCc2ccccc2C1` (stereo not drawn) [Compound 140, 5-METHANESULFONYL-2-METHYL-N-(6,7,8,9-TETRAHYDRO-5H-BENZOCYCLOHEPTEN-6-YL)-BENZAMIDE], the concentration for a half-maximal effect (EC50) amounted to 1300 nM. Moreover, under setting [1], the maximal fold induction amounted to 3.

Regarding `O=C(NC1CCCc2ccccc2C1)c1nc(Cl)ccc1Cl` (stereo not drawn) [Compound 141, 3,6-DICHLORO-PYRIDINE-2-CARBOXYLIC ACID (6,7,8,9-TETRAHYDRO-5H-BENZOCYCLOHEPTEN-6-YL)-AMIDE], the EC50 was 250 nM. Also, under setting [1], the maximal fold induction was 3.2.

The record behind these values is patent publication US7709478B2, “Acylated 6,7,8,9-tetrahydro-5H-benzocycloheptenyl amines and their use as pharmaceutical agents” (sanofi-aventis Deutschland GmbH, priority 2001, dated 2010).
